In patent US20140128352A1, “COMPOUNDS AND METHODS FOR MODULATING MITOCHONDRIAL METABOLISM AND REACTIVE OXYGEN SPECIES PRODUCTION” (Buck Institute for Research on Aging, priority 2012, published 2014):
Where two headings read alike, the source gives them in different places.

Columns and labels:
[1] = system: ubiquinone binding site of complex I (IQ); experiment: High-throughput screen: ROS production from ubiquinone binding site of complex I (IQ), isolated skeletal muscle mitochondria; assay type: biochemical, rat; details: for % Reduction in ROS production (IQ): Table 2, 5 mM succinate, compounds 2.5 μM, percent change from DMSO, positive control −100%; for IQ: percent change in ROS from DMSO controls
[2] = molecular target: T1, flavin binding site of complex I (IF) (Rattus norvegicus, UniProt Q5XIH3); experiment: High-throughput screen: ROS production from flavin binding site of complex I (IF); assay type: biochemical
T1 construct: freshly isolated muscle mitochondria were assayed; from tissue; host or cells: rat skeletal muscle mitochondria (Wistar, Harlan Laboratories)
Procedure: Skeletal muscle mitochondria were isolated from 5-8 week old female Wistar rats (Harlan Laboratories). Minced muscle was homogenized in buffer containing bacterial protease Type VIII prior to differential centrifugation to separate mitochondria from other tissue components. Unless otherwise stated, freshly isolated muscle mitochondria were assayed in buffer containing 120 mM KCl, 5 mM HEPES, 1 mM EGTA, 0.3% (w/v) bovine serum albumin. Where indicated, CaCl2 was added to yield a final free concentration of 250 nM calcium at pH 7.0 at 37° C.
Master screening plates were prepared using a Biomek FX liquid handling workstation (Beckman) to transfer 1 μL of each compound into individual wells on 96-well storage plates (80 compounds per plate). […] Just prior to use, plates were brought to room temperature and diluted 300-fold with standard buffer (13.3X=33.3 μM). To monitor the performance of each assay throughout screening and to provide intra-plate normalization reference points, DMSO negative controls and known mitochondrial inhibitor positive controls were included on each Master compound plate.
Total amounts of superoxide and H2O2 production were determined fluorometrically as H2O2, without distinguishing between them, in the presence of exogenous superoxide dismutase (25 units/mL final), horseradish peroxidase (1 unit/mL final), and Amplex UltraRed (25 μM final) as described (Affourtit, C. et al. (2012) Measurement of proton leak and electron leak in isolated mitochondria. Methods Mol. Biol. 810: 165-82). Just prior to use, a bulk 3.3X solution was made in standard buffer and distributed into a 2 mL deep well 96-well transfer plate.
To assess the effects of a compound on ROS production from the flavin binding site of complex I (IF), Start Solution containing 5 mM glutamate, 5 mM malate and 4 μM rotenone was distributed into standard 96-well transfer plates. A Biomek FX workstation was programmed to dispense solutions into black 96-well assay plates. Solutions were dispensed to all assay plates in the following order: ROS Detection solution described in Example 3, Mitochondria solution described in Example 1 to a final concentration of 0.3 mg/ml, and Compound dilutions described in Example 2. Duplicate assay plates were made and each was initiated by the addition of 3.3X Start solution containing 5 mM glutamate, 5 mM malate and 4 μM rotenone. Plates were incubated in the dark at room temperature for 30-40 minutes before acquiring endpoint fluorescence using a Victor 3V plate reader (Perkin Elmer) equipped with 550/590 nm excitation/emission filters.
The fluorescence values in each well were scaled as the percent change from the intra-plate DMSO controls with the appropriate inhibitor positive controls defined as −100%. Following initial scaling, intra-plate normalized values were subjected to Tukey's two-way median polish to remove row and column dependent positional effects (Malo, N. et al. (2006) Statistical practice in high-throughput screening data analysis. Nat. Biotechnol. 24(2): 167-75).

[3] = molecular target: T2, outer ubiquinone binding site of complex III (IIIQO) (Rattus norvegicus, UniProt P00159+P20788); experiment: High-throughput screen: ROS production from outer ubiquinone binding site of complex III (IIIQO); assay type: biochemical; details: percent change in ROS from DMSO controls
T2 construct: freshly isolated muscle mitochondria were assayed; from tissue; host or cells: rat skeletal muscle mitochondria (Wistar, Harlan Laboratories)

[4] = molecular target: T3, succinate dehydrogenase/complex II (SDH) (Rattus norvegicus, UniProt P21913+Q641Z9+Q6PCT8+Q920L2); experiment: High-throughput screen: ROS production from succinate dehydrogenase/complex II (SDH); assay type: biochemical; details: for inhibition at 2.5 µM: Table 7
T3 construct: freshly isolated muscle mitochondria were assayed; from tissue; host or cells: rat skeletal muscle mitochondria (Wistar, Harlan Laboratories)

[5] = molecular target: T4, glycerol-3-phosphate dehydrogenase (GPDH) (Rattus norvegicus, UniProt P35571); experiment: High-throughput screen: ROS production from glycerol-3-phosphate dehydrogenase (GPDH); assay type: biochemical; parameters: inhibition: dose or concentration left out as unconfirmed; details: for inhibition: Table 7
T4 construct: The activity of GPDH in intact mitochondria (0.3 mg/mL) was measured; from tissue; host or cells: rat skeletal muscle mitochondria (Wistar, Harlan Laboratories)
T4 sequence (P35571 43-727): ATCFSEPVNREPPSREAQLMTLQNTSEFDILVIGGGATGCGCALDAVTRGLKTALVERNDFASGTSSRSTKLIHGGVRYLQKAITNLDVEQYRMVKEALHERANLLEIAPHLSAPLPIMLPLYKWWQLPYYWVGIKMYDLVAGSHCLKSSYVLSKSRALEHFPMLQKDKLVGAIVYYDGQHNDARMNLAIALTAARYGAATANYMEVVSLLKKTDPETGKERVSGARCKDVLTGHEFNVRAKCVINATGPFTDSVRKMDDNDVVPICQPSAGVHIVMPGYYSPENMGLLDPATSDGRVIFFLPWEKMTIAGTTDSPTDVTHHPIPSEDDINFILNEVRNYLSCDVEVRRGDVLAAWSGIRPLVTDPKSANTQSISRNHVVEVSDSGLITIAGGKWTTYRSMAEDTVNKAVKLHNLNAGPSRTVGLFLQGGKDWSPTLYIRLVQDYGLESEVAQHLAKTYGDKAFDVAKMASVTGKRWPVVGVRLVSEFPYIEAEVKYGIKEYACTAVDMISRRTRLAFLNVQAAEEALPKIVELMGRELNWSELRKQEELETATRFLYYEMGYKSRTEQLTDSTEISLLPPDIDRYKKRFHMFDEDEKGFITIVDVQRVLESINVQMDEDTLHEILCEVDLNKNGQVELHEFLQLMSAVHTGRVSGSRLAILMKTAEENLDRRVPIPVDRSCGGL

[6] = system: mitochondrial membrane potential (ΔΨm); experiment: Membrane potential (ΔΨm) counterscreen with TMRM; details: malate, nigericin
[7] = Table 7, percent change in ROS from DMSO controls, read-out: IF
[8] = Table 8, percent change in ROS from DMSO controls
[9] = Table 9, percent change in ROS from DMSO controls
[10] = percent change in ROS from DMSO controls

T1 sequence (Q5XIH3 21-464 limits assumed, one chain of several): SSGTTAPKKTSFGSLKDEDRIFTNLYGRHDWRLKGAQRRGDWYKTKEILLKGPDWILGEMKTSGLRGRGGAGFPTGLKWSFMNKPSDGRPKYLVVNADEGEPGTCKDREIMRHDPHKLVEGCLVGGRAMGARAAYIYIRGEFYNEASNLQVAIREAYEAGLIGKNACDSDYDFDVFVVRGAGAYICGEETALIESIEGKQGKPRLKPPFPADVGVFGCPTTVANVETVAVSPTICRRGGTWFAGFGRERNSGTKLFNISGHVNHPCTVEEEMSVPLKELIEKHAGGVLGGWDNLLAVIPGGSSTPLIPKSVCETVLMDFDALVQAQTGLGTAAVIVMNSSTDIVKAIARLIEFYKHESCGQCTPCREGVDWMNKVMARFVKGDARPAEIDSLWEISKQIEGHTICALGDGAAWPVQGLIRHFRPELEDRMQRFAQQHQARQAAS
T3 sequence (Q920L2 35-656): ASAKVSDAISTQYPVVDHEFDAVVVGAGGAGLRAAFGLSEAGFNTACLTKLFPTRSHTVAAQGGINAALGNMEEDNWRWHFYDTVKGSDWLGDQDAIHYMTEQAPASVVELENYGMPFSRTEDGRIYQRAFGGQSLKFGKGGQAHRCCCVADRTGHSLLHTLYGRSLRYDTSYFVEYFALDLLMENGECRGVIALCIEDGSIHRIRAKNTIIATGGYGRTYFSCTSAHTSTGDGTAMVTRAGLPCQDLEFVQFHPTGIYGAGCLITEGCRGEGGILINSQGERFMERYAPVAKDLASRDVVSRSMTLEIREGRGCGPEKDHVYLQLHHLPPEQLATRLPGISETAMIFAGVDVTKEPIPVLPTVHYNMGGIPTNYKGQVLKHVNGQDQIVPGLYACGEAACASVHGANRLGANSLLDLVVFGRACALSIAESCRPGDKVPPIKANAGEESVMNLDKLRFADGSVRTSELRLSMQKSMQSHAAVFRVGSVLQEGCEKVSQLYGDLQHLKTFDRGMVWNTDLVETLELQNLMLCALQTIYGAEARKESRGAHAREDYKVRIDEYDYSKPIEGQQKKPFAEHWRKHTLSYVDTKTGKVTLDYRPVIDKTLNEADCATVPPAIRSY
T3 sequence (P21913 31-282): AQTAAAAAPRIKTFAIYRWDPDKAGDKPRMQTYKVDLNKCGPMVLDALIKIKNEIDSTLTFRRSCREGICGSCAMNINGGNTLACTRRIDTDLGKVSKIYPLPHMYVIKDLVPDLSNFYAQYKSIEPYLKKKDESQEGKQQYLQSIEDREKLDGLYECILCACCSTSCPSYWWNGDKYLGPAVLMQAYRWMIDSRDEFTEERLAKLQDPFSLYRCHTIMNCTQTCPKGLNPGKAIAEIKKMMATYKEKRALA
T3 sequence (Q641Z9 30-169 limits assumed): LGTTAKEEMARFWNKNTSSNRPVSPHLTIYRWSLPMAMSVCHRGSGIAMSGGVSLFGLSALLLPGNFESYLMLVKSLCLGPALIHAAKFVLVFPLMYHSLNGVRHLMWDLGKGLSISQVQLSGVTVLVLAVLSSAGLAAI
T3 sequence (Q6PCT8 57-159): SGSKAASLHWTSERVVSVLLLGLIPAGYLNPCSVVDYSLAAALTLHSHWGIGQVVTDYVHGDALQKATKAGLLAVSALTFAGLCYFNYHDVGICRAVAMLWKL

Structure (SMILES) | % Reduction in ROS production (IQ) [1] | IQ ([1]; Table 7) | IQ ([1]; Table 8) | IQ ([1]; Table 9) | inhibition at 2.5 µM [2, 7] | IF [2, 8] | IF [2, 9] | inhibition at 2.5 µM ([3]; Table 7, read-out: IIIQO) | IIIQO ([3]; Table 8) | inhibition at 2.5 µM ([3]; Table 9, read-out: IIIQo) | inhibition at 2.5 µM [4, 10] | SDH [4, 8] | SDH [4, 9] | inhibition [5, 10] | GPDH [5, 8] | GPDH [5, 9] | ΔΨm ([6]; Table 8, glutamate) | ΔΨm ([6]; Table 9, glutamate) | further results
Cc1ccc(NS(=O)(=O)c2ccc(C3CCCCC3)cc2)cc1 [Compound 6] | −38.6% | −38.6 | −38.6 | −38.6 | -3.6% | 3.6 | 3.6 | 3.4% | −3.4 | 3.4% | 1.1% | −1.1 | −1.1 | 2.3% | −2.3 | −2.3 | 0.0 | 0.0 | 
C=CCSc1nc(N)c(C#N)c(CC)c1C#N [Compound 7] | −36.5% | −36.5 | −36.5 | −36.5 | -1.3% | 1.3 | 1.3 | -9.2% | 9.2 | -9.2% | -2.1% | 2.1 | 2.1 | -5.6% | 5.6 | 5.6 | −0.5 | −0.5 | 
O=S(=O)(Nc1ccc(Br)cc1)c1ccc(C2CCCCC2)cc1 [Compound 8] | −36.3% | −36.3 | −36.3 | −36.3 | 4.2% | −4.2 | −4.2 | -7.6% | 7.6 | -7.6% | -0.4% | 0.4 | 0.4 | 1.8% | −1.8 | −1.8 | −0.3 | −0.3 | 
Cc1ccccc1NS(=O)(=O)c1ccc(C2CCCCC2)cc1 [Compound 9] | −31.2% | −31.2 | −31.2 | −31.2 | -0.4% | 0.4 | 0.4 | 2.7% | −2.7 | 2.7% | -0.3% | 0.3 | 0.3 | -1% | 1.0 | 1.0 | −0.1 | −0.1 | 
CC(=O)Nc1ccc(S(=O)(=O)Nc2cccc(C)c2)cc1 [Compound 10] | −24.1% | −24.1 | −24.1 | −24.1 | -3.3% | 3.3 | 3.3 | 2.8% | −2.8 | 2.8% | -1% | 1.0 | 1.0 | 4.3% | −4.3 | −4.3 | −0.2 | −0.2 | 
COc1ccc(NS(=O)(=O)c2cccc(C(=O)Nc3ccc(C)cc3)c2)cc1 [Compound 11] | −23.8% | −23.8 | −23.8 | −23.8 | -3.3% | 3.3 | 3.3 | 1.9% | −1.9 | 1.9% | 0.2% | −0.2 | −0.2 | 5% | −5.0 | −5.0 | −0.4 | −0.4 | 
Cc1ccccc1NS(=O)(=O)c1ccc(-c2ccc(S(=O)(=O)Nc3ccccc3C)cc2)cc1 [Compound 12] | −20.7% | −20.7 | −20.7 | −20.7 | 1.7% | −1.7 | −1.7 | -0.2% | 0.2 | -0.2% | 0.1% | −0.1 | −0.1 | -0.5% | 0.5 | 0.5 | −0.5 | −0.5 | 
CC1=CC(C)C(C2OCC(CN3CCCCC3)O2)C(C)C1 (stereo not drawn) [Compound 13] |  | 0.1 | 0.1 | 0.1 | 39% | −39.0 | −39.0 | 9% | −9.0 | 9% | 2.8% | −2.8 | −2.8 | 1.2% | −1.2 | −1.2 | −0.5 | −0.5 | inhibition at 2.5 µM ([2]; Table 3, 5 mM glutamate, 5 mM malate, 4 μM rotenone, compounds 2.5 μM, percent change from DMSO, positive control −100%, read-out: % Reduction in ROS production (IF)): 39%
Cc1cc(C)c(OCC(O)CNC(C)(C)CC(C)(C)C)c(C)c1.Cl (stereo not drawn) [Compound 14] |  | −4.7 | −4.7 | −4.7 |  |  |  |  | −2.9 |  |  |  |  |  |  |  | −0.7 | −0.7 | % Reduction in ROS production (IF) [2]: −37.7%; IF [2]: −37.7; IIIQO ([3]; Table 7): −2.9; IIIQO ([3]; Table 9): −2.9; SDH [4]: −9.6; GPDH [5]: −3.9
